Results taken from ChEMBL document CHEMBL3751795, “Discovery of pyridyl-based inhibitors of Plasmodium falciparum N-myristoyltransferase” (Medchemcomm, 2015).

Columns and labels:
[1] = target: T1, Glycylpeptide N-tetradecanoyltransferase 1 (Homo sapiens, UniProt P30419)
T1 sequence (P30419 whole entry): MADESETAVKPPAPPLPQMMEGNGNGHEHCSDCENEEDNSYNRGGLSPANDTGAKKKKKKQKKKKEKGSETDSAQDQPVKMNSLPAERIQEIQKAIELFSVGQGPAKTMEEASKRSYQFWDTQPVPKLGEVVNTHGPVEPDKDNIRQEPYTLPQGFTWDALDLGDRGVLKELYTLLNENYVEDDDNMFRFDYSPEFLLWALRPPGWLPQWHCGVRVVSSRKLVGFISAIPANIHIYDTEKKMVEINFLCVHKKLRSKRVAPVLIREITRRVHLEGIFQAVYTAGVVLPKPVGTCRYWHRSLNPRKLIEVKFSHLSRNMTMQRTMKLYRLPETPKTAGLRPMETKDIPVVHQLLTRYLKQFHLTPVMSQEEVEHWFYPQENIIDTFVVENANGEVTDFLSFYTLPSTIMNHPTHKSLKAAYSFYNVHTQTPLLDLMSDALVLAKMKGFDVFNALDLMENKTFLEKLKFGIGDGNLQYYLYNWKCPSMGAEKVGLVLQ
Description: Inhibition of human NMT1 by 7-diethylamine-3-(4'maleimidylphenyl)-4-methylcoumarin based fluorescence assay

[2] = target: T2, Glycylpeptide N-tetradecanoyltransferase (Plasmodium falciparum (isolate 3D7), UniProt Q8ILW6); conditions: read-out: Ki(app)
T2 sequence (Q8ILW6 whole entry): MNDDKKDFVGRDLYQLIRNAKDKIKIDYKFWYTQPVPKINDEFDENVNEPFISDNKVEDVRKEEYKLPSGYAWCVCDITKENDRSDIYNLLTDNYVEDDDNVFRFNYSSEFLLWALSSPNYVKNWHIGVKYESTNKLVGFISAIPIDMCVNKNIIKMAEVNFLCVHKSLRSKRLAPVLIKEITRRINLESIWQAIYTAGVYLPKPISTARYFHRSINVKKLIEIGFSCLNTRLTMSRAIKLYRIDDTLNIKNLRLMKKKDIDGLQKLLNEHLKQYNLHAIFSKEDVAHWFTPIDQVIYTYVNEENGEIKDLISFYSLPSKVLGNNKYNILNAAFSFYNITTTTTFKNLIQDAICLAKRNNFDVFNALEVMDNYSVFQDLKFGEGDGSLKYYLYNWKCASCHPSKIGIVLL

Plasmodium falciparum = assay: Antiparasitic activity against Plasmodium falciparum 3D7 trophozoites infected in RBC assessed as reduction in cell viability incubated for 96 hrs SyBr green assay; conditions: 3D7, 96 h
[3] = Cytotoxicity against human HepG2 cells after 48 hrs by MTS assay; type: cell-based; conditions: read-out: LD50

Row | SMILES | Ki [1] [nM] | Ki [2] [nM] | EC50 (Plasmodium falciparum) [nM] | CC50 at 48 h [3] [nM]
1 | COc1cccc(Cc2noc(-c3ccccc3OC3CCNCC3)n2)c1 | 1400 | 190 |  | 
2 | Clc1ccc(-c2nc(Cc3ccccc3)no2)c(OC2CCNCC2)c1 |  | 290 |  | 
3 | Fc1cccc(OC2CCNCC2)c1-c1nc(Cc2ccccc2)no1 |  | 4800 |  | 
4 | c1ccc(Cc2noc(-c3ncccc3OC3CCNCC3)n2)cc1 |  | 29000 |  | 
5 | Cc1ccc(OC2CCNCC2)c(-c2nc(Cc3ccccc3)no2)c1 |  | 29000 |  | 
6 | CCN1CCC(Oc2ncccc2-c2nc(Cc3c(C)nn(C)c3C)no2)CC1 |  | 340 | > 10000 | 
7 | COc1ccc(OC2CCNCC2)c(-c2nc(Cc3ccccc3)no2)c1 | 2300 | 4600 |  | 
8 | c1ccc(Cc2noc(-c3cccnc3OC3CCNCC3)n2)cc1 | 1700 | 140 |  | 
9 | COc1cccc(Cc2noc(-c3ccc(Cl)cc3OC3CCNCC3)n2)c1 |  | 30 |  | 
10 | Fc1ccc(OC2CCNCC2)c(-c2nc(Cc3ccccc3)no2)c1 | 1000 | 240 |  | 
11 | c1cnc(OC2CCNCC2)c(-c2nc(Cc3cccc4ncccc34)no2)c1 | 24 | 1.7 | 210 | 65000
12 | Fc1cccc(-c2nc(Cc3ccccc3)no2)c1OC1CCNCC1 |  | 1500 |  | 
13 | Clc1ccc(OC2CCNCC2)c(-c2nc(Cc3ccccc3)no2)c1 |  | 520 |  | 
14 | Cc1nn(C)c(C)c1Cc1noc(-c2cccnc2OC2CCN(C(C)C)CC2)n1 |  | 90 |  | > 100000
15 | Cc1ccc(-c2nc(Cc3ccccc3)no2)c(OC2CCNCC2)c1 |  | 620 |  | 
16 | Cc1nn(C)c(C)c1Cc1noc(-c2cccnc2OC2CCN(C)CC2)n1 |  | 570 | > 30000 | 
17 | Cc1nn(C)c(C)c1Cc1noc(-c2cccnc2OC2CCNCC2)n1 |  | 28 |  | > 100000
18 | COc1cccc(Cc2noc(-c3ccc(F)cc3OC3CCNCC3)n2)c1 |  | 71 |  | 
19 | COc1cccc(-c2nc(Cc3ccccc3)no2)c1OC1CCNCC1 |  | 17000 |  | 
20 | Cc1cccc(-c2nc(Cc3ccccc3)no2)c1OC1CCNCC1 |  | 39000 |  | 
21 | Fc1ccc(-c2nc(Cc3ccccc3)no2)c(OC2CCNCC2)c1 | 4900 | 220 |  | 
22 | COc1cccc(Cc2noc(-c3ccc(OC)cc3OC3CCNCC3)n2)c1 |  | 71 |  | 
23 | COc1cccc(Cc2noc(-c3cccnc3OC3CCNCC3)n2)c1 |  | 27 |  | 
24 | c1ccc(Cc2noc(-c3ccccc3OC3CCNCC3)n2)cc1 |  | 1400 |  | 
25 | COc1ccc(-c2nc(Cc3ccccc3)no2)c(OC2CCNCC2)c1 | 1200 | 180 |  | 
